Assay results from US8106086B2, “Indoledione derivative” (MSD K.K., priority 2007, dated 2012).

Tests used:
human LCE = target: T1, human LCE (Homo sapiens, UniProt Q9H5J4); assay: LCE enzyme activity inhibition test; format: biochemical; settings: palmitoyl CoA and [14C]-malonyl CoA, 37° C. for 90 minutes
T1 sequence (Q9H5J4 1-265): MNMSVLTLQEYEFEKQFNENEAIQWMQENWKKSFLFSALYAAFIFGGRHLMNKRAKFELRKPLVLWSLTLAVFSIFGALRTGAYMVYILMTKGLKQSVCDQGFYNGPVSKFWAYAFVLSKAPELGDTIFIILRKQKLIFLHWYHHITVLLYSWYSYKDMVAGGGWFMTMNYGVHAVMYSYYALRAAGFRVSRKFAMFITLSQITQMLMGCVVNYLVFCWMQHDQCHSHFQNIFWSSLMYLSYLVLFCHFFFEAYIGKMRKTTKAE
Experimental: The LCE enzyme activity inhibition test was carried out according to a modification of the method of Moon et al., J. Biol. Chem., Vol. 276, pp. 45358 to 45366 (2001). Namely, 1.0 μl of the diluted test compound was added to each well of a 96-well assay plate (Corning, 96-Well Assay Block). Next, 50 μl of a phosphate buffer solution (100 mM potassium phosphate buffer solution, pH 6.5) and 25 μl of a substrate solution (in 100 mM potassium phosphate buffer solution (pH 6.5), 4.0 μM rotenone, 80 μM fatty acid-free bovine serum albumin, 160 μM palmitoyl CoA, 80 μM malonyl CoA, 3.5 μM [^14C]-malonyl CoA (1.92 GBq/mmol, manufactured by Amersham) were added to each well. Further, 25 μl of an enzyme solution (in 100 mM potassium phosphate buffer solution (pH 6.5), 100 μg/ml human LCE) was added thereto. Then, the upper side of the plate was sealed up, and the plate was incubated with gently stirring at 37° C. for 90 minutes. Subsequently, 100 μl of 5 N HCl was added to each well. The reaction was ceased by stirring the assay plate at room temperature for 5 minutes and acyl CoA was hydrolyzed. Subsequently, the enzyme reaction solution in each well was adsorbed by each well of a 96-well GF/C filter plate (Perkin Elmer Unifilter 96GF/C) through which water had been preliminarily passed. After washing each well with water to remove unabsorbed malonyl CoA, the GF/C filter plate was dried at 50° C. for 60 minutes. Next, 30 μl of a scintilator (Perkin Elmer, Microschinti 0) was added to each well and the upper side of the plate was sealed up. The radioactivity of the thus fixed [^14C] was measured with a microplate scintillation counter (Perkin Elmer, Topcount) and the obtained value was referred to as the enzyme activity. The human LCE enzyme inhibition activity of the test compound was calculated, based on the radioactivity of the well containing test compound-free DMSO as a control.

[1] = target: T2, intracellular LCE in H2.35 cells originating in mouse liver (Mus musculus, UniProt Q920L5); assay: Intracellular LCE activity inhibition test; format: cell-based; settings: [14C]-palmitoyl CoA, C18/C16 ratio by radio HPLC
T2 construct: endogenous in cells; host or cells: H2.35 mouse liver cells
T2 sequence (Q920L5 1-267): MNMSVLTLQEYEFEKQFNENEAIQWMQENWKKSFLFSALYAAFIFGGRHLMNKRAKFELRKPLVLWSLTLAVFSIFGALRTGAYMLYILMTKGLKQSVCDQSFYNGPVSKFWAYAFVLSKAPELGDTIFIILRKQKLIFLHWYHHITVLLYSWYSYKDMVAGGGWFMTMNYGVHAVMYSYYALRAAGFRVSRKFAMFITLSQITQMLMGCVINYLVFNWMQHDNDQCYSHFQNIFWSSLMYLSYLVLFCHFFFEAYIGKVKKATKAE
Experimental: Cultured H2.35 cells originating in mouse liver were maintained in DMEM (GIBCO) containing 4% calf serum and 200 nM dexamethasone and cultured at 33° C. in the presence of 5% CO2. About 2.5×10^5 H2.35 cells were pipetted into a 24-well cell culture plate (Corning, 24-Well Cell Culture Cluster) and cultured overnight at 33° C. in the presence of 5% CO2. […] After culturing for 1 hour at 33° C. in the presence of 5% CO2, [^14C]-palmitoyl CoA (2.13 GBq/mmol, manufactured by Perkin Elmer) was added to each well and culture was conducted for additional 4 hours at 33° C. in the presence of 5% CO2. Next, each well was washed with ice-cooled phosphate-buffered physiological saline and 250 μl of 2M sodium hydroxide was added to cease the reaction. Then, the reaction solution in each well was transferred into a glass test tube and incubated at 70° C. for 1 hour. After adding 100 μl of a 5N hydrogen chloride solution, fatty acids were extracted with petroleum ether. Then [^14C]-labeled fatty acids were quantified by radio HPLC and the ratio of the amount of fatty acids having carbon chains consisting of 18 carbon atoms to the amount of those having carbon chains consisting of 16 carbon atoms (C18/C16 ratio) was calculated. The intracellular LCE inhibition activity of the test compound was calculated, based on the C18/C16 ratio of the well containing test compound-free DMSO as a control.

[2] = activity of the optically resolved components of Production Example 1 (test not stated); settings: fractions from optical resolution on CHIRALPAK AD-H

SMILES	IC50 (human LCE)	IC50 [1]	identified as being active [2]
COc1ccc(-n2[nH]c(C)c(C3(C(F)(F)F)C(=O)N(c4ccccc4)C4=C3C(=O)CC(C)(C)C4)c2=O)cc1 (centres unmarked) [Production Example 26, 3-[2,5-dihydro-1-(4-methoxyphenyl)-3-methyl-5-oxo-1H-pyrazol-4-yl]-3,5,6,7-tetrahydro-6,6-dimethyl-1-phenyl-3-trifluoromethyl-1H-indole-2,4-dione]	–	3.1 nM	–
Cc1[nH]n(-c2ccccc2)c(=O)c1C1(C(F)(F)F)C(=O)N(c2ccccc2)C2=C1C(=O)CC(C)(C)C2 (centres unmarked) [3-(2,5-dihydro-3-methyl-5-oxo-1-phenyl-1H-pyrazol-4-yl)-3,5,6,7-tetrahydro-6,6-dimethyl-1-phenyl-3-trifluoromethyl-1H-indole-2,4-dione]	–	–	active
Cc1[nH]n(-c2ccc(C(F)(F)F)cc2)c(=O)c1C1(C(F)(F)F)C(=O)N(c2ccccc2)C2=C1C(=O)CC(C)(C)C2 (centres unmarked) [Production Example 29, 3-[2,5-dihydro-3-methyl-5-oxo-1-(4-trifluoromethylphenyl)-1H-pyrazol-4-yl]-3,5,6,7-tetrahydro-6,6-dimethyl-1-phenyl-3-trifluoromethyl-1H-indole-2,4-dione]	23 nM	1.2 nM	–
Cc1[nH]n(-c2ccc(S(C)(=O)=O)cc2)c(=O)c1C1(C(F)(F)F)C(=O)N(c2ccccc2)C2=C1C(=O)CC(C)(C)C2 (centres unmarked) [Production Example 44, 3-[2,5-dihydro-3-methyl-(4-methylsulfonylphenyl)-5-oxo-1H-pyrazol-4-yl]-3,5,6,7-tetrahydro-6,6-dimethyl-1-phenyl-3-trifluoromethyl-1H-indole-2,4-dione]	8.9 nM	7 nM	–

More lines, main results first:

IC50 (human LCE)	IC50 [1]	SMILES	identified as being active [2]
30 nM	38 nM	Cc1[nH]n(-c2ccc(OC(C)C)cc2)c(=O)c1C1(C(F)(F)F)C(=O)N(c2ccccc2)C2=C1C(=O)CC(C)(C)C2 (centres unmarked) [Production Example 40, 3-[2,5-dihydro-1-(4-isopropoxyphenyl)-3-methyl-5-oxo-1H-pyrazol-4-yl]-3,5,6,7-tetrahydro-6,6-dimethyl-1-phenyl-3-trifluoromethyl-1H-indole-2,4-dione]	–
22 nM	25 nM	Cc1[nH]n(-c2ccc(-c3ccccc3)cc2)c(=O)c1C1(C(F)(F)F)C(=O)N(c2ccccc2)C2=C1C(=O)CC(C)(C)C2 (centres unmarked) [Production Example 42, 3-[2,5-dihydro-3-methyl-5-oxo-1-(biphenyl-4-yl)-1H-pyrazol-4-yl]-3,5,6,7-tetrahydro-6,6-dimethyl-1-phenyl-3-trifluoromethyl-1H-indole-2,4-dione]	–
–	5.4 nM	Cc1[nH]n(-c2ccc(C#N)cc2)c(=O)c1C1(C(F)(F)F)C(=O)N(c2ccccc2)C2=C1C(=O)CC(C)(C)C2 (centres unmarked) [Production Example 31, 3-[1-(4-cyanophenyl)-2,5-dihydro-3-methyl-5-oxo-1H-pyrazol-4-yl]-3,5,6,7-tetrahydro-6,6-dimethyl-1-phenyl-3-trifluoromethyl-1H-indole-2,4-dione]	–
15 nM	4.2 nM	Cc1[nH]n(-c2ccc(C(C)(C)C)cc2)c(=O)c1C1(C(F)(F)F)C(=O)N(c2ccccc2)C2=C1C(=O)CC(C)(C)C2 (centres unmarked) [Production Example 35, 3-[1-(4-tert-butylphenyl)-2,5-dihydro-3-methyl-5-oxo-1H-pyrazol-4-yl]-3,5,6,7-tetrahydro-6,6-dimethyl-1-phenyl-3-trifluoromethyl-1H-indole-2,4-dione]	–
–	0.6 nM	Cc1[nH]n(-c2ccc(OC(F)(F)F)cc2)c(=O)c1C1(C(F)(F)F)C(=O)N(c2ccccc2)C2=C1C(=O)CC(C)(C)C2 (centres unmarked) [Production Example 36, 3-[2,5-dihydro-3-methyl-5-oxo-1-(4-trifluoromethoxyphenyl)-1H-pyrazol-4-yl]-3,5,6,7-tetrahydro-6,6-dimethyl-1-phenyl-3-trifluoromethyl-1H-indole-2,4-dione]	–
